# Assays:
# mouse melanopsin = target: T1, mouse melanopsin (Mus musculus, UniProt Q9QXZ9); experiment: GsX GloSensor assay with exogenous Gsα WT; type: cell-based; conditions: 16.7 μM AA92593; COS-1 cells
# T1 construct: the C-terminal amino acid residues (94, 140, 200, 214, 296, and 308 residues); expressed in transfected cells; host or cells: COS-1
# Text: Previous studies of human and mouse melanopsins reported that these melanopsins can activate not only Gq but Gs and Gi ([20], [21], [22]). Thus, we assessed the effect of AA92593 on Gsα WT or Gsα/i11 (with 11 C-terminal sequence of Giα) using the GsX GloSensor assay. In agreement with the promiscuous G protein-coupling of melanopsins, we observed light-dependent increase of GloSensor luminescence in COS-1 cells expressing Gsα or Gsα/i11 with human/mouse melanopsins (Fig. 1, G–J).
# For GloSensor assay, opsins, GloSensor assay sensor (coded by pGlo-22F), and NanoBiT-tagged G proteins were transiently expressed in COS-1 cells (kindly provided from Dr David Farrens, Oregon Health and Science University) using PEI as described previously ([24], [52]). […] For GFP-fluorescence microscopy, a 35-mm cell culture dish (IWAKI) was transfected with 2 μg melanopsin-GFP plasmid and 8 μg PEI in 400 μl Opti-mem and 1.2 ml D-MEM. […]
# The transfected COS-1 cells were incubated at 37 °C, 5% CO2 for 2 days, and the medium was aspirated and exchanged with 50 μl of HBSS (145 mM NaCl, 10 mM D-glucose, 5 mM KCl, 1 mM MgCl2, 1.7 mM CaCl2, 1.5 mM NaHCO3, 10 mM Hepes, pH 7.4), containing 33.3, 20, 10, 2, 0.2, 0.02, 0.002, or 0 μM AA92593, 0.5% dimetyl sulfoxide (DMSO), and 4% (vol/vol) GloSensor cAMP reagent stock solution. […] Luminescence was measured using GM-2000 or GM-3510 microplate reader (Promega). […]
# human melanopsin = target: T2, human melanopsin (Homo sapiens, UniProt Q9UHM6); experiment: GloSensor cAMP assay via endogenous G proteins; type: cell-based; design: the C-terminal amino acid residues (94, 140, 200, 214, 296, and 308 residues); expressed in transfected cells; host or cells: COS-1; conditions: COS-1 cells, no exogenous G protein
# T2 sequence (Q9UHM6 1-384 limits assumed): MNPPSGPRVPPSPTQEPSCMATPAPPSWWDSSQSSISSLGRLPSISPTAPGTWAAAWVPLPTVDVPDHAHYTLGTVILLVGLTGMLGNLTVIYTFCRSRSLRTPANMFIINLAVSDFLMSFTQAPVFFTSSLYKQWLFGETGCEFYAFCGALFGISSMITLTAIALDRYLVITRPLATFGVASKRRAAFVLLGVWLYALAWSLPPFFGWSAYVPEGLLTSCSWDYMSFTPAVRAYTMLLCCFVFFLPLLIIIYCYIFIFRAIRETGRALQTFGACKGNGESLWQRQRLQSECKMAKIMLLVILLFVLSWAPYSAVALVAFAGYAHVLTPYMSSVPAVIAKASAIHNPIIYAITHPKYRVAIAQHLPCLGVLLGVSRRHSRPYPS
# T1 sequence (Q9QXZ9 1-381 limits assumed): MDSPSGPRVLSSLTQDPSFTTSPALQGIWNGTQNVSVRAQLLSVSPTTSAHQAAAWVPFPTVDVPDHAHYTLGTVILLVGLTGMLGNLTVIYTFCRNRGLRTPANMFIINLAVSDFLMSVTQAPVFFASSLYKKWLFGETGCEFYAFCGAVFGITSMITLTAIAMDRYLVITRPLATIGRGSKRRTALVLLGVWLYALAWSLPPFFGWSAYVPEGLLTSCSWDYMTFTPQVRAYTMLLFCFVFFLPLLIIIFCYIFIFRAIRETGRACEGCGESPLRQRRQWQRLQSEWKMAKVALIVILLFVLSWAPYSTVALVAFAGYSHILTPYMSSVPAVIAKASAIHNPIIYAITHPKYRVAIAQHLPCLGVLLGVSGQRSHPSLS
smiles,measurement,setting,value
COc1ccc(S(=O)(=O)N2CCCCC2)cc1C [AA92593],effect on melanopsin-induced cAMP responses via exogenous Gsα,mouse melanopsin,can suppress
same,effect on endogenous G protein-induced cAMP responses,human melanopsin,inhibited

# Source: article PMC12051620, “Molecular basis underlying the specificity of an antagonist AA92593 for mammalian melanopsins” (The Journal of Biological Chemistry, 2025)
